# Measured values published in patent US20250179057A1, “MEK IMMUNE ONCOLOGY INHIBITORS AND THERAPEUTIC USES THEREOF” (Immuneering Corporation, priority 2022, published 2025).
# Values joined by “and” are separate entries in the source; they are usually repeats but may differ in a detail not shown here. Identical values can stand only once.
# Tested on: phospho-ERK in A549 (KRAS G12S) cells
# Assay: Cell-based pERK (pERK:tERK) in A549 cells
# Design: A549-pERK 10 uM, 2 h: unit not given here
# Settings: 10 nM, 2 h; phospho- to total protein ratio normalized to DMSO control (Table 9)
# Description: Media components, reagents and buffers for Western Blot: All cell culture media components were obtained from ThermoFisher Scientific. […] Laemmli sample loading 4× buffer (ThermoFisher Scientific, Cat No. NP0007). MOPS/SDS electrophoresis running buffer (GenScript, Cat No. M00138).
# Subculture conditions: Adherent cells were grown to approximately 90% confluency, culture medium was aspirated and the cell layer was rinsed with PBS. […] Eight mL media was added, cells were spun down at 1000×g for 5 minutes. Cell pellet was re-suspended in 10 mL media and an appropriate volume was inoculated into a new culture flask.
# Compound (drug) treatment: Cells were plated in a 6-well plate at a density of 250,000-300,000 cells/well in 3 mL media and incubated 37° C. in a humidified, 5% CO2 incubator. […] These solutions were added to the cells (3 uL/well), mixed by swirling the plate, and incubated at 37° C. in a humidified, 5% CO2 incubator for 2 hours.
# Cell lysis and protein estimation: Cells were washed with PBS, and scraped in 50 μL of lysis buffer containing protease and phosphatase inhibitors. Cell lysates were stored at −20° C. Cell lysates were thawed and spun at 12,000 rpm for one minute, 3 ul of the supernatant was added to 500 μL of Coomassie blue reagent following by 500 μL of water. […] Protein standards were used (0-20 mg/mL) to calculate protein concentrations of test samples.
# All samples were heated at 95° C. for 5 minutes, cooled to room temperature and spun down. […] After the run, gel was removed and protein transfer was done using iBlot for 7 minutes, as per manufacturer's recommendations. After the transfer, nitrocellulose membrane was incubated on a shaker in 5 mL of blocking buffer at room temperature for 1 hr. The blot was then incubated overnight on a shaker in 5 ml of blocking buffer containing 0.2% Tween-20 and primary antibody, at room temperature. Anti-phospho-STAT3 antibody was used at a dilution of 1:500, the other 3 primary antibodies were used at a dilution of 1:1000.
# Next day, the blot was washed 3 times for 10 min each with 10 mL of TBST followed by incubation on a shaker in 5 ml of blocking buffer containing 0.2% Tween-20 and 0.5 ul of the IRDye labeled secondary antibodies, diluted 1:10000, at room temperature for 1 hr. The blot was then washed 3 times for 10 min each with 10 mL of TBST and dried between sheets of paper towels. Imaging was done using LICOR's Odyssey imaging system, quantitation was done using their software, Image Studio version 3.1.
# Materials and Methods: A549 or A375 cells were seeded in 6-well plates at an appropriate seeding density on day 0. On day 2 or 3, after checking the health and confluency of cells, the media was aspirated and replaced with 1 mL media containing a predetermined concentration of compound and incubated for 2 hours. After 2 hours, the media was aspirated, and the cells washed 2 times with cold PBS. Cells were lysed on ice, with 50 uL 1×CST lysis buffer +1 mM PMSF for 5 minutes. After 5 minutes, cells were removed using a scraper and transferred to cold 1.5 mL tubes, and centrifuged for 10 min, 4° C., 14,000×g. Supernatant was gently removed and snap frozen in liquid nitrogen. Protein concentration of the lysate was determined using Bradford Reagent (analyzed using SpectraMax M2E) and diluted to 1 mg/mL or pERK or 1.5 mg/mL for pMEK analysis. […] All dilutions were in Milk-free antibody diluent.
# They were grown in T75 flasks in DMEM containing 10% FBS and Pen-Strep. at 37° C. in a humidified, 5% CO2 incubator. The adherent cells were grown to about 90% confluency, culture medium was aspirated, and the cell layer was rinsed with PBS. […] Eight mL media was added, cells were spun down at 1000 g for 5 minutes. Cell pellet was re-suspended in 10 mL media and an appropriate volume was inoculated into a new culture flask. Cells were plated in a 6-well plate at a density of 250,000-300,000 cells/well in 3 mL media and incubated 37° C. in a humidified, 5% CO2 incubator.
row,Compound,"A549-pERK (10 nM, 2 h)"
1,CNS(=O)(=O)Nc1cccc(Cc2c(CN3CCN(C)CC3)c3ccc(OC(=O)N(C)C)cc3oc2=O)c1F [Compound 15],73.8
2,CNS(=O)(=O)Nc1cccc(Cc2c(CN3CCN(Cc4ccccc4)CC3)c3ccc(OC(=O)N(C)C)cc3oc2=O)c1F [Compound 16],91.6
3,CNS(=O)(=O)Nc1cccc(Cc2c(CNCC3CC3)c3ccc(OC(=O)N(C)C)cc3oc2=O)c1F [Compound 26],94.2
4,CNS(=O)(=O)Nc1cccc(Cc2c(CNCc3ccncc3)c3ccc(OC(=O)N(C)C)cc3oc2=O)c1F [Compound 29],96
5,CNS(=O)(=O)Nc1cccc(Cc2c(CNc3ccccc3)c3ccc(OC(=O)N(C)C)cc3oc2=O)c1F [Compound 30],54.3
6,CNS(=O)(=O)Nc1cccc(Cc2c(CNc3ccn[nH]3)c3ccc(OC(=O)N(C)C)cc3oc2=O)c1F [Compound 31],66.7
7,CNS(=O)(=O)Nc1cccc(Cc2c(CNCc3ccco3)c3ccc(OC(=O)N(C)C)cc3oc2=O)c1F [Compound 56],92.9
8,CNS(=O)(=O)Nc1cccc(Cc2c(CNCC(=O)N(C)C)c3ccc(OC(=O)N(C)C)cc3oc2=O)c1F [Compound 57],106 and 119
9,CNS(=O)(=O)Nc1cccc(Cc2c(CNCCN(C)C)c3ccc(OC(=O)N(C)C)cc3oc2=O)c1F [Compound 58],98.7 and 108
10,CNS(=O)(=O)Nc1cccc(Cc2c(CNCc3cccc(C(F)(F)F)c3)c3ccc(OC(=O)N(C)C)cc3oc2=O)c1F [Compound 59],105
11,CNS(=O)(=O)Nc1cccc(Cc2c(CN3CCN(C(C)C)CC3)c3ccc(OC(=O)N(C)C)cc3oc2=O)c1F [Compound 62],73
12,CNS(=O)(=O)Nc1cccc(Cc2c(CNC(C)c3ccccc3)c3ccc(OC(=O)N(C)C)cc3oc2=O)c1F (stereo not drawn) [Compound 63],88
13,CNS(=O)(=O)Nc1cccc(Cc2c(CN3CCN(C4CC4)CC3)c3ccc(OC(=O)N(C)C)cc3oc2=O)c1F [Compound 64],73
14,CNS(=O)(=O)Nc1cccc(Cc2c(CN3CCN(C(=O)c4ccccc4)CC3)c3ccc(OC(=O)N(C)C)cc3oc2=O)c1F [Compound 65],100
15,CNS(=O)(=O)Nc1cccc(Cc2c(CNCCC(F)(F)F)c3ccc(OC(=O)N(C)C)cc3oc2=O)c1F [Compound 66],104
16,CNS(=O)(=O)Nc1cccc(Cc2c(CN3CCN(S(C)(=O)=O)CC3)c3ccc(OC(=O)N(C)C)cc3oc2=O)c1F [Compound 68],68.9
17,CCN1CCN(Cc2c(Cc3cccc(NS(=O)(=O)NC)c3F)c(=O)oc3cc(OC(=O)N(C)C)ccc23)CC1=O [Compound 69],101
18,CNS(=O)(=O)Nc1cccc(Cc2c(CNCCCCO)c3ccc(OC(=O)N(C)C)cc3oc2=O)c1F [Compound 71],99.4
19,C#CCN(C)Cc1c(Cc2cccc(NS(=O)(=O)NC)c2F)c(=O)oc2cc(OC(=O)N(C)C)ccc12 [Compound 76],62.1
20,CNS(=O)(=O)Nc1cccc(Cc2c(CNc3ccn(C)n3)c3ccc(OC(=O)N(C)C)cc3oc2=O)c1F [Compound 89],83.7
21,CNS(=O)(=O)Nc1cccc(Cc2c(CNc3cn[nH]c3)c3ccc(OC(=O)N(C)C)cc3oc2=O)c1F [Compound 92],93.8
22,CNS(=O)(=O)Nc1cccc(Cc2c(CNc3nccs3)c3ccc(OC(=O)N(C)C)cc3oc2=O)c1F [Compound 94],93.5

row,Compound,"A549-pERK (10 nM, 2 h)"
1,CNS(=O)(=O)Nc1cccc(Cc2c(CN(C)c3cccc(Cl)c3)c3ccc(OC(=O)N(C)C)cc3oc2=O)c1F [Compound 95],80.2
2,CNS(=O)(=O)Nc1cccc(Cc2c(CNc3ccnn3C)c3ccc(OC(=O)N(C)C)cc3oc2=O)c1F [Compound 96],102
3,CNS(=O)(=O)Nc1cccc(Cc2c(CN(C)c3ccccc3Cl)c3ccc(OC(=O)N(C)C)cc3oc2=O)c1F [Compound 99],98.9
4,CCN(CC)C(=O)Oc1ccc2c(CN(C)C)c(Cc3cccc(NS(=O)(=O)NC)c3F)c(=O)oc2c1 [Compound 126],91.4
5,CNS(=O)(=O)Nc1cccc(Cc2c(CN(C)C)c3ccc(OC(=O)N4CCN(C)CC4)cc3oc2=O)c1F [Compound 127],110
6,CNS(=O)(=O)Nc1cccc(Cc2c(CN(C)C)c3ccc(Oc4ncccn4)cc3oc2=O)c1F [Compound 129],92.2
7,CNS(=O)(=O)Nc1cccc(Cc2c(CNCC(=O)O)c3cc(Cl)c(OC(=O)N(C)C)cc3oc2=O)c1F [Compound 133],88.1
8,CNS(=O)(=O)Nc1cccc(Cc2c(CN3CC4CC3CN4)c3ccc(OC(=O)N(C)C)cc3oc2=O)c1F (stereo not drawn) [Compound 138],96.9
9,CNS(=O)(=O)Nc1cccc(Cc2c(CN3CC(C)C3)c3ccc(OC(=O)N(C)C)cc3oc2=O)c1F [Compound 142],94.6
10,CNS(=O)(=O)Nc1cccc(Cc2c(CN3CC(C)(C)C3)c3ccc(OC(=O)N(C)C)cc3oc2=O)c1F [Compound 143],104
11,CNS(=O)(=O)Nc1cccc(Cc2c(CN3CC(Cl)C3)c3ccc(OC(=O)N(C)C)cc3oc2=O)c1F [Compound 145],104
12,CNS(=O)(=O)Nc1nccc(Cc2c(CN3CC(F)(F)C3)c3ccc(OC(=O)N(C)C)cc3oc2=O)c1F [Compound 149],69.1
13,CNS(=O)(=O)Nc1cccc(Cc2c(CN3CC4(COC4)C3)c3ccc(OC(=O)N(C)C)cc3oc2=O)c1F [Compound 152],70.5
14,CNS(=O)(=O)Nc1cccc(Cc2c(CN3CC(N(C)C)C3)c3ccc(OC(=O)N(C)C)cc3oc2=O)c1F [Compound 154],64
15,CN(C)C(=O)Oc1ccc2c(CN3CCC3)c(Cc3ccnc(NS(=O)(=O)C4CC4)c3F)c(=O)oc2c1 [Compound 155],84.9
16,CNS(=O)(=O)Nc1cccc(Cc2c(CN3CCC4(CN(C)C4)C3)c3ccc(OC(=O)N(C)C)cc3oc2=O)c1F [Compound 159],82.7
17,CNC1CN(Cc2c(Cc3cccc(NS(=O)(=O)NC)c3F)c(=O)oc3cc(OC(=O)N(C)C)ccc23)C1 [Compound 164],102
18,CNS(=O)(=O)Nc1cccc(Cc2c(CN3CC(N)C3)c3ccc(OC(=O)N(C)C)cc3oc2=O)c1F [Compound 165],104
19,CNS(=O)(=O)Nc1cccc(Cc2c(CN3CC(C#N)C3)c3ccc(OC(=O)N(C)C)cc3oc2=O)c1F [Compound 172],111
20,CNS(=O)(=O)Nc1cccc(Cc2c(CN3CC(C(N)=O)C3)c3ccc(OC(=O)N(C)C)cc3oc2=O)c1F [Compound 173],97.7
21,CNS(=O)(=O)Nc1cccc(Cc2c(CO)c3ccc(OC(=O)N(C)C)cc3oc2=O)c1F [Compound 180],75

# Same assay, conditions: 10 uM, 2 h; phospho- to total protein ratio normalized to DMSO control
row,Compound,"A549-pERK 10 uM, 2 h"
1,CNS(=O)(=O)Nc1cccc(Cc2c(CNCC(=O)N(C)C)c3ccc(OC(=O)N(C)C)cc3oc2=O)c1F [Compound 57],7.33
2,CNS(=O)(=O)Nc1cccc(Cc2c(CNC(N)=O)c3ccc(OC(=O)N(C)C)cc3oc2=O)c1F [Compound 105],7.39
3,CNS(=O)(=O)Nc1cccc(Cc2c(CNC(=O)OCCO)c3ccc(OC(=O)N(C)C)cc3oc2=O)c1F [Compound 106],27.88
4,CNS(=O)(=O)Nc1cccc(Cc2c(CNCC(=O)O)c3cc(Cl)c(OC(=O)N(C)C)cc3oc2=O)c1F [Compound 133],23.41

# Same assay, conditions: Phospho-ERK Screen in A549 (KRAS G12S); head 10 nM 2 h, title 10 μM for 2 hours
row,Compound,pERK:tERK (10 nM 2 h A549)
1,CC(C)CS(=O)(=O)Nc1cccc(Cc2c(CN3CCNCC3)c3cc(Cl)c(OC(=O)N(C)C)cc3oc2=O)c1F [Compound 168],50 (n = 2) and 53 (n = 2)
